BindingDB's records for doi:10.1021/jm050820s (Schering-Plough Research Institute, 2006)
pKi: −log10 of the molar value.

Biological target: Genome polyprotein (Hepatitis C virus genotype 1a (isolate H77), UniProt P27958)
Experiment: Continuous Spectrophotometric Assay
Settings: not given
Procedure: Proteolytic cleavage of the ester linkage between the Nva (L-norvaline) and the chromophore (PAP) was monitored for change in absorbance at 370 nm. Initial velocities were determined using linear regression and kinetic constants were obtained by fitting the data to the Michaelis-Menten equation.

Sequence of Genome polyprotein (P27958 1027-1657 limits assumed): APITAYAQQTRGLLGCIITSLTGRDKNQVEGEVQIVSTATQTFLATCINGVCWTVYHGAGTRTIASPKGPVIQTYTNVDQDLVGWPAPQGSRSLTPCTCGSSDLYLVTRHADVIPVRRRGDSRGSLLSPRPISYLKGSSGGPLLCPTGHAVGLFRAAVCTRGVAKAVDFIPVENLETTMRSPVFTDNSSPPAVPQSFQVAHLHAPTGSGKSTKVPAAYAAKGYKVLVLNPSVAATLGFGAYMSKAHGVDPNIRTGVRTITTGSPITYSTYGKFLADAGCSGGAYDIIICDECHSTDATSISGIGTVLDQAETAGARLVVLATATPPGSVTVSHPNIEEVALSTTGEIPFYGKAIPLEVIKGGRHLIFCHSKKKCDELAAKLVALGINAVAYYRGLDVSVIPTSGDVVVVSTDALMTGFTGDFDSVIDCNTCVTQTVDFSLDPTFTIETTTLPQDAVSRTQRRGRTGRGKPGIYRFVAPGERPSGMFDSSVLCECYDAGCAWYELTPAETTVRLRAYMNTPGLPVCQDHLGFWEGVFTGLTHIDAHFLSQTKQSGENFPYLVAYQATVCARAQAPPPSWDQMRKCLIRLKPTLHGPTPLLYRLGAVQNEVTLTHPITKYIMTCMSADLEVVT

Row | Compound | pKi
1 | CCCC(NC(=O)[C@@H]1C[C@@H]2CN1C(=O)[C@H](C1CCCCC1)NC(=O)Cc1cccc(c1)OCCCN2S(=O)(=O)c1ccccc1)C(=O)C(=O)NCC(=O)N[C@H](C(=O)N(C)C)c1ccccc1 (stereo partly drawn) [3-{[(7R,9S,12S)-6-(benzenesulfonyl)-12-cyclohexyl-11,14-dioxo-2-oxa-6,10,13-triazatricyclo[14.3.1.1^{7,10}]henicosa-1(20),16,18-trien-9-yl]formamido}-N-({[(S)-(dimethylcarbamoyl)(phenyl)methyl]carbamoyl}methyl)-2-oxohexanamide] | 7.44
2 | CCCC(NC(=O)[C@@H]1C[C@@H]2CN1C(=O)[C@H](C1CCCCC1)NC(=O)Cc1cccc(c1)OCCCS2(=O)=O)C(=O)C(=O)NCC(=O)N[C@H](C(=O)N(C)C)c1ccccc1 (stereo partly drawn) [(2S)-({N-[3-({[(7R,9S,12S)-12-cyclohexyl-6,6-dioxido-11,14-dioxo-2-oxa-6-thia-10,13-diazatricyclo[14.3.1.17,10]henicosa-1(20),16,18-trien-9-yl]carbonyl}amino)-2-oxohexanoyl]glycyl}amino)(phenyl)acetic acid N,N-dimethyl amide] | 5.48

Same assay, conditions: pH 6.5; 30 °C

Row | Compound | pKi
3 | CCCC(NC(=O)[C@@H]1C[C@@H]2CN1C(=O)[C@H](C1CCCCC1)NC(=O)Cc1cccc(c1)OCCCCO2)C(=O)C(=O)NCC(=O)N[C@H](C(=O)N(C)C)c1ccccc1 (stereo partly drawn) [3-{[(5S,8S,10R)-5-cyclohexyl-3,6-dioxo-11,16-dioxa-4,7-diazatricyclo[15.3.1.1^{7,10}]docosa-1(20),17(21),18-trien-8-yl]formamido}-N-({[(S)-(dimethylcarbamoyl)(phenyl)methyl]carbamoyl}methyl)-2-oxohexanamide] | 8.15
4 | CCCC(NC(=O)[C@@H]1C[C@@H]2CN1C(=O)[C@H](C1CCCCC1)NC(=O)Cc1cccc(c1)OCCO2)C(=O)C(=O)NCC(=O)N[C@H](C(=O)N(C)C)c1ccccc1 (stereo partly drawn) [3-{[(6R,8S,11S)-11-cyclohexyl-10,13-dioxo-2,5-dioxa-9,12-diazatricyclo[13.3.1.1^{6,9}]icosa-1(19),15,17-trien-8-yl]formamido}-N-({[(S)-(dimethylcarbamoyl)(phenyl)methyl]carbamoyl}methyl)-2-oxohexanamide] | 7.52
5 | CCCC(NC(=O)[C@@H]1C[C@@H]2CN1C(=O)[C@H](C1CCCCC1)NC(=O)Cc1cccc(c1)OCCCS2)C(=O)C(=O)NCC(=O)N[C@H](C(=O)N(C)C)c1ccccc1 (stereo partly drawn) [(2S)-({N-[3-({[(7R,9S,12S)-12-cyclohexyl-11,14-dioxo-2-oxa-6-thia-10,13-diazatricyclo[14.3.1.17,10]henicosa-1(20),16,18-trien-9-yl]carbonyl}amino)-2-oxohexanoyl]glycyl}amino)(phenyl)acetic acid N,N-dimethyl amide] | 8.00
6 | CCC[C@H](NC(=O)[C@@H]1C[C@@H]2CN1C(=O)[C@H](C(C)(C)C)NC(=O)Cc1cccc(c1)OCCCO2)C(=O)C(=O)NCC(=O)N[C@H](C(=O)N(C)C)c1ccccc1 [(2S)-({N-[(3S)-3-({[(7R,9S,12S)-12-tert-butyl-11,14-dioxo-2,6-dioxa-10,13-diazatricyclo[14.3.1.17,10]henicosa-1(20),16,18-trien-9-yl]carbonyl}amino)-2-oxohexanoyl]glycyl}amino)(phenyl)acetic acid N,N-dimethyl amide] | 7.82
7 | CCC[C@H](NC(=O)[C@@H]1C[C@H]2CN1C(=O)[C@H](C(C)(C)C)NC(=O)Cc1cccc(c1)OCCCO2)C(=O)C(=O)NCC(=O)N[C@H](C(=O)N(C)C)c1ccccc1 [(2S)-({N-[(3S)-3-({[(7S,9S,12S)-12-tert-butyl-11,14-dioxo-2,6-dioxa-10,13-diazatricyclo[14.3.1.17,10]henicosa-1(20),16,18-trien-9-yl]carbonyl}amino)-2-oxohexanoyl]glycyl}amino)(phenyl)acetic acid N,N-dimethyl amide] | 6.89
